Laboratory results as given in US20260103474A1, “NOVEL COMPOUNDS FOR THE DIAGNOSIS OF TDP-43 PROTEINOPATHIES” (AC IMMUNE SA, priority 2022, published 2026).
pKi: −log10 of the molar value.

Experiments:
[1] = target: T1, PD brain-derived a-synuclein aggregates (Homo sapiens, UniProt P37840); assay: Micro-radiobinding competition assay against a-syn reference on PD brain-derived insoluble fraction; type: binding; conditions: against [3H]-reference a-syn compound
T1 construct: from tissue; host or cells: frozen brain tissue of PD donors, 1% sarkosyl-insoluble pellet
Description: The procedure was adapted from the protocol described in Spillantini et al., 1998. Frozen tissue blocks from PD donors were thawed on ice and homogenized using a glass dounce homogenizer. The homogenate was then centrifuged at 11,000×g (12,700 RPM) in an ultracentrifuge (Beckman, XL100K) for 20 minutes at 4° C. using a pre-cooled 70.1 rotor (Beckman, 342184). Pellets were resuspended in extraction buffer [10 mM Tris-HCl pH 7.4, 10% sucrose, […], 1% protease inhibitor (Calbiochem 539131), 1 mM EGTA, 1% phosphatase inhibitor (Sigma P5726 and P0044)] and centrifuged at 15,000×g (14,800 RPM, a 70.1 Ti rotor) for 20 minutes at 4° C. […]
PD brain-derived a-synuclein aggregates and AD brain-derived Tau PHF aggregates were spotted onto microarray slides. […] Quantification of signal was performed by using the image analysis software Beamage (ai4R). Non-specific signal was determined with an excess of non-radiolabelled compound (2 μM) and specific binding was calculated by subtracting the non-specific signal from the total signal. Competition was calculated as percentage, where 0% was defined as the specific binding in the presence of vehicle and 100% as the values obtained in the presence of excess of the non-radiolabelled a-syn reference compound. Ki values were calculated in GraphPad Prism7 by applying a nonlinear regression curve fit using a one site, specific binding model. […]

[2] = test system: Abeta and Tau aggregates in AD tissue; assay: Classical autoradiography on Abeta- and Tau-rich AD brain tissue sections; type: binding, human; conditions: tritiated compound 10 nM; alone or in self-competition
Description: All tissues were collected from donors for or from whom a written informed consent for a brain autopsy and the use of the material and clinical information for research purposes had been obtained by the respective brain banks. All samples were anonymized and coded. Frozen brain tissue blocks with confirmed Abeta and Tau pathology upon autopsy were processed using a cryotome to generate sections of 10 μm in thickness and mounted on glass slides. Sections were kept at −80° C. until use.
Brain sections were fixed for 15 minutes at 4° C. with 4% formaldehyde on ice and washed three times for eight minutes with 1×PBS at RT. Sections were blocked in assay buffer for 30 minutes (50 mM Tris-HCl, 0.9% NaCl+0.1% BSA). Cold test compound (Compound 1) was diluted in assay buffer to 4 μM and applied on half of the sections for 40 minutes at RT to determine non-specific binding. The remaining half of the sections were only incubated with assay buffer (total binding). […]
Sections were subsequently dried under a stream of air and mounted with a copper-based adhesive strip. Bound radioactivity was quantified by exposing the slides in a real-time autoradiography system (Beaquant™ AI4R) for 2 hours with measurement settings configured for tritium. Beavacq software (AI4R) was used to acquire the image which was subsequently quantified using Beamage image analysis software (AI4R).

[3] = test system: Tau tangles; assay: High resolution micro-autoradiography on AD brain sections; type: binding, human; conditions: tritiated compound 20 nM
Description: The protocol was adapted from Marquie et al., 2015. AD sections were incubated with [^3H]-Compound 1, [^3H]-Compound 17 or [^3H]-Tau reference compound at 20 nM for one hour at room temperature (RT). Sections were then washed as follows: One time in ice-cold 50 mM Tris-HCl pH 7.4 buffer for one minute, two times in 70% ice-cold ethanol for one minute, one time in ice-cold 50 mM Tris-HCl pH 7.4 buffer for one minute and finally rinsed briefly in ice-cold distilled water. Sections were subsequently dried and then exposed to Ilford Nuclear Emulsion Type K5 (Agar Scientific, AGP9281) in a light-proof slide storage box. After five days, the sections were developed by immersing them successively in the following solutions: 1.) Ilford Phenisol Developer (1:5 dilution in H2O, Agar Scientific, AGP9106), 2.) Ilfostop solution (1:20 dilution in H2O, Agar Scientific, AGP9104), 3.) Ilford Hypam Fixer (1:5 dilution in H2O, Agar Scientific, AGP9183) and finally rinsed with H2O.
Thioflavin S staining was performed on adjacent sections. For image acquisition, sections were mounted using ProLong Gold Antifade reagent (Invitrogen P36930) and imaged on a Panoramic150 Slide Scanner (3DHistech) with a 20× objective capturing separately brightfield and fluorescent images.

Structure (SMILES) | pKi [1] | Classical autoradiography signal on AD tissue with abundant Abeta and Tau pathology [2] | Micro-autoradiography silver grain accumulation on Tau tangles in AD brain sections [3]
O=C1c2sc(-c3ccc(N4CC[C@@H](F)C4)nc3F)nc2CCN1c1cccnc1 [Compound 1, 2-[2-fluoro-6-[(3R)-3-fluoropyrrolidin-1-yl]-3-pyridyl]-5-(3-pyridyl)-6,7-dihydrothiazolo[5,4-c]pyridin-4-one] | < 6.30 | no signal on the tissue | 
O=C1c2sc(-c3ccc(N4CCC(CO)CC4)nc3F)nc2CCN1c1cccnc1 [Compound 17, 2-(2-fluoro-6-(4-(hydroxymethyl)piperidin-1-yl)pyridin-3-yl)-5-(pyridin-3-yl)-6,7-dihydrothiazolo[5,4-c]pyridin-4(5H)-one] |  | no signal on the tissue | 
[3H]c1cncc(N2CCc3nc(-c4cc([3H])c(N5CC[C@@H](F)C5)nc4F)sc3C2=O)c1 [[^3H]-Compound 1, tritiated 2-[2-fluoro-6-[(3R)-3-fluoropyrrolidin-1-yl]-3-pyridyl]-5-(3-pyridyl)-6,7-dihydrothiazolo[5,4-c]pyridin-4-one] |  |  | No accumulation of silver grains on Tau tangles
[3H]C([3H])(O)C1CCN(c2ccc(-c3nc4c(s3)C(=O)N(c3cccnc3)CC4)c(F)n2)CC1 [[^3H]-Compound 17, 2-(2-fluoro-6-(4-(hydroxymethyl-t2)piperidin-1-yl)pyridin-3-yl)-5-(pyridin-3-yl)-6,7-dihydrothiazolo[5,4-c]pyridin-4(5H)-one] |  |  | No accumulation of silver grains on Tau tangles
